Holding throughout (assay): MTT assay, growth inhibition of human tumor cells
Assay type in all cases: cell-based

One test relates to Panc-1.
Another test concerns Calu-1. The settings on record: Calu-1 cells, 4 days treatment, several values = separate determinations.
Another test relates to A549.
[1] abbreviates: Homo sapiens, 96 h, MTT assay, Panc-1 cells, 4 days treatment, several values = separate determinations.
The mark [2] stands for this setting: MTT assay, Panc-1 cells, 4 days treatment, several values = separate determinations.

Read-outs that look alike come from different tables or passages of the source. A value given as a limit tells only on which side of the number the result lay.

As for `O=c1[nH]cc(F)c(=O)[nH]1` [5-FU, 5-fluorouracil, reference compound], the half-inhibitory concentration (IC50) (as a rule, the concentration that gives 50% inhibition) with Panc-1 (setting [1]) was 5 µM; in the test with Calu-1 (Homo sapiens, 96 h) it was 250 µM. Consider `NC(=O)NO` [hydroxyurea, reference compound], for which the IC50 in the test with Panc-1 (setting [1]) was 1.3 µM; in the test with Calu-1 (Homo sapiens, 96 h), greater than 250 µM. Regarding “Pt^IV(en) (HOHN—CO—NH2)(NO2) 5-FU [CPA-13]”, the IC50 with Panc-1 (setting [2]) was found to be 2.3 µM. In the test on Panc-1 (setting [2]), “[Cis-Pt IV(NH3)2(Cl)2(NO2) (5-FU)] [JP3]” came in with an IC50 of 2.6 µM. The compound “[Cis-Pt IV(NH3)2(Cl)2(NO2) (OP(-salicylate)(OH)O)] [JP6]” registered an IC50 in the test on Panc-1 of 5.5 µM. On to cis-[Pt^IV(NH3)2Cl2NO2-5FU [CPA-14], for which half-maximal inhibition in the test on Calu-1 (IC50) was put at 13 µM. On to “cis-[Pt^IV(NH3)2Cl2NO2-salicylate] [CPA-19]”, for which the IC50 with Panc-1 stood at 20 µM; with A549 it was 37 µM.

The values above are taken from patent US8455543B2, “Platinum complexes and methods for inhibiting tumor cell proliferation” (University of South Florida, priority 2004, dated 2013).
